# Data as given in patent US7964376B2, “Chimeric proteins and their use in methods to screen for sweet taste modulators” (Givaudan SA, priority 2006, dated 2011).
# Residues, ends and D or L forms follow the SMILES beside them.
# Target: T1, CSR::T1R2-b/CSR::T1R3-b chimeric heterodimer (Homo sapiens, UniProt P41180+Q7RTX0+Q8TE23)
# T1 sequence (P41180+Q8TE23 with tags, fused parts or gaps): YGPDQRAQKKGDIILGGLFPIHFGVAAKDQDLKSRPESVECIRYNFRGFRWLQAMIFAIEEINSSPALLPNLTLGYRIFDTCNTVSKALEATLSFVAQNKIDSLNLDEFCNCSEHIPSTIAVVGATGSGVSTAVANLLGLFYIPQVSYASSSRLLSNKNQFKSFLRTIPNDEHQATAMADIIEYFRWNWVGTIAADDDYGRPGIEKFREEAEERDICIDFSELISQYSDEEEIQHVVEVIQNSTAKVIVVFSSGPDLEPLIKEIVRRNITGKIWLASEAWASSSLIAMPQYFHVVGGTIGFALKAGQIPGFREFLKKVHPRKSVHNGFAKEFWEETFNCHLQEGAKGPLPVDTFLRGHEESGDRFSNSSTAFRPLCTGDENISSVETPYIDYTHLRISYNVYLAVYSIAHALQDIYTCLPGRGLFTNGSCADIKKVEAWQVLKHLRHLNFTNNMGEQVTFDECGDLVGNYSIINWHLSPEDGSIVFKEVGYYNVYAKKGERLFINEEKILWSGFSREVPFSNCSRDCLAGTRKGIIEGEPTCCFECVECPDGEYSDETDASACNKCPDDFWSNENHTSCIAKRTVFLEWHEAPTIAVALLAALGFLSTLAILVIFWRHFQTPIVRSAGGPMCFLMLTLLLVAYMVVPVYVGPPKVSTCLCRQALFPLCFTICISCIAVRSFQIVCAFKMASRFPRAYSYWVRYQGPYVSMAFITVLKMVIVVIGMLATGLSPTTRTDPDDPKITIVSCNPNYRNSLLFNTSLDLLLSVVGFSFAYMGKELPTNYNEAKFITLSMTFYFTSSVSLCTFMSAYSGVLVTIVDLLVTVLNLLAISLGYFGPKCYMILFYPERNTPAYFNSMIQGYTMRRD
# T1 sequence (P41180+Q7RTX0 with tags, fused parts or gaps): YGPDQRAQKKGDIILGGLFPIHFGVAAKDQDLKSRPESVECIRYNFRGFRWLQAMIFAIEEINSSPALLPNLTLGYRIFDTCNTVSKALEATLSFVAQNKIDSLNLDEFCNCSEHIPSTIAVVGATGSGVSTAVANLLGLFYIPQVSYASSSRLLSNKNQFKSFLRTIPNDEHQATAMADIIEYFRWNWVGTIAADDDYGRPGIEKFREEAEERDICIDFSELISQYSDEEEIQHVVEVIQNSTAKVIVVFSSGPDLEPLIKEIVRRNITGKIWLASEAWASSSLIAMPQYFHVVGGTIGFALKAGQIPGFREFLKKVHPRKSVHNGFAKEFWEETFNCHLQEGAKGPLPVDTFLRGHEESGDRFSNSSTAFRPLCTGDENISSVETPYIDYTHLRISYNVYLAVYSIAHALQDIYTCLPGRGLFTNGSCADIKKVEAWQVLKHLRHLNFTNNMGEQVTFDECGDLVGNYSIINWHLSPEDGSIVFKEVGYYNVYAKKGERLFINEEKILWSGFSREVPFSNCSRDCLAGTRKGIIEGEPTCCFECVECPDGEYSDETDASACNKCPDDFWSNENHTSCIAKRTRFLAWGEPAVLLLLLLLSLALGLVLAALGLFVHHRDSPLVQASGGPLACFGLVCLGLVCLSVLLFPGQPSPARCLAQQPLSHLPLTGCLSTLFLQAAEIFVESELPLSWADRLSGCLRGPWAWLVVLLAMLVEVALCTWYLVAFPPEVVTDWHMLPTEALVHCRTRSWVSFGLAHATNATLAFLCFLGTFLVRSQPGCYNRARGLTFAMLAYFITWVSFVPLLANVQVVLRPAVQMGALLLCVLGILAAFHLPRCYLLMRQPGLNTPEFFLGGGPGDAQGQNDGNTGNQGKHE
# Assay: Fluo-4 calcium assay, transiently transfected HEK293T/Gα16-gustducin 44 cells (Example 6b)
# Settings: mean of six replicates; Calcium Chloride (2 mM), Sucralose (0.5 mM), perillartine (50 μM)
# Description: (§2) Fluo-4 is a fluorescent indicator for intracellular calcium and allows to determine changes in the calcium concentration, in particular an increase in response to receptor activation occurring after ligand addition.
# (§3) Black, clear-bottom 96-well plates were used for all assays. They were seeded the day before with 8500 transfected cells per well and maintained at 37° C. overnight in an a growth medium appropriate for the cells used. For HEK293 cells, Dulbecco's Modified Eagle medium containing high glucose, L-glutamine, pyroxidine hydrochloride, and supplemented with 10% fetal bovine serum was used for growth and maintenance of the HEK293 cells.
# (§4) After the initial 1 hour loading period, the plates were washed 5 times with 100 μl per well of reduced calcium C1 buffer using an automated plate washer (BioTek) and after washing, the plate was further incubated for 30 minutes at room temperature in the dark to allow for complete de-esterification of the Fluo-4-AM. The buffer solutions were discarded, the plate was washed 5 times with 100 μl reduced calcium C1 wash buffer and finally the cells were reconstituted in 180 μl of reduced calcium C1 wash buffer.
# (§5) For assay reading, the plate was placed in a FLIPR (fluorescence imaging plate reader (FLIPR-Tetra, Molecular Devices)), and receptor activation was initiated following addition of 20 μl of a 10× concentrated ligand stock solution, which were prepared in reduced calcium C1 buffer.
# (§6) Receptor activation is given in relative fluorescence units (RFU) and is defined by the following equation: Fluorescence Increase=Maximum Fluorescence−baseline fluorescence, wherein the baseline fluorescence represents the mean fluorescence calculated for the first 10 to 15 seconds prior to ligand addition.
# As a negative control, mock transfected cells were exposed to the same concentration of ligand and the concentration of calcium traces not corresponding to a signal was determined. […]
# (§7) The calcium mobilization signals obtained are increase in peak fluorescence (F) normalized to the baseline fluorescence (F0). […]
row,SMILES,CSR::T1R2-b/CSR::T1R3-b AVG (mean ΔF/F)
1,"[Ca+2].[Cl-].[Cl-] [Calcium, Calcium Chloride]",0.46 ΔF/F
2,C=C(C)[C@@H]1CC=C(/C=N/O)CC1 [Perillartine],0.169 ΔF/F
3,OC[C@H]1O[C@H](O[C@]2(CCl)O[C@H](CCl)[C@@H](O)[C@@H]2O)[C@H](O)[C@@H](O)[C@H]1Cl [Sucralose],0.017 ΔF/F

# Target: T2, T1R2/T1R3 sweet heterodimer (Homo sapiens, UniProt Q7RTX0+Q8TE23, C757R)
# T2 construct: expressed in transfected cells; host or cells: HEK293T cells stably expressing Ga16-gustducin 44, transient co-transfection of pcDNA3.1 constructs
# T2 sequence (Q8TE23 20-839): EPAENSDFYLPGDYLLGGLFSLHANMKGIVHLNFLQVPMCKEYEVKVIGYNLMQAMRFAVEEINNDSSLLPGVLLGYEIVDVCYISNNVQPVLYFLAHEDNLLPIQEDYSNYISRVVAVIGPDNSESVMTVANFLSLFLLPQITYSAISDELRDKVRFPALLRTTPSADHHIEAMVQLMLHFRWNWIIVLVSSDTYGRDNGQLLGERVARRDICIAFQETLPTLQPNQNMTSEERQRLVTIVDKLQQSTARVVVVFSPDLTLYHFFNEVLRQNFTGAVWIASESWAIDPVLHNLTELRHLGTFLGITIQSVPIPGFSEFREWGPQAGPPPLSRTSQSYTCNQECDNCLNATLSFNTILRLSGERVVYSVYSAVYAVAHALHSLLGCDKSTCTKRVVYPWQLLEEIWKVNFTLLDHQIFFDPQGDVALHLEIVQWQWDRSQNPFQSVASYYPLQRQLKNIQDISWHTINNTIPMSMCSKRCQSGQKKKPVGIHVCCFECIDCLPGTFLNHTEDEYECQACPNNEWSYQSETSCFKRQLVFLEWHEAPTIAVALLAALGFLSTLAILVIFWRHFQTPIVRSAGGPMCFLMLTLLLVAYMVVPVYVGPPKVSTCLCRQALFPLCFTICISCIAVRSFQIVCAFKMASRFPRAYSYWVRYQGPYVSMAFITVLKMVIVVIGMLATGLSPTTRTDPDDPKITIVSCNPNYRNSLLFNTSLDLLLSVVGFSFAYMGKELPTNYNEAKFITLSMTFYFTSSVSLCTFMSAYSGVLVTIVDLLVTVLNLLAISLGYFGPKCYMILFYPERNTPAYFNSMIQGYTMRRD
# T2 sequence (Q7RTX0 21-852 C757R): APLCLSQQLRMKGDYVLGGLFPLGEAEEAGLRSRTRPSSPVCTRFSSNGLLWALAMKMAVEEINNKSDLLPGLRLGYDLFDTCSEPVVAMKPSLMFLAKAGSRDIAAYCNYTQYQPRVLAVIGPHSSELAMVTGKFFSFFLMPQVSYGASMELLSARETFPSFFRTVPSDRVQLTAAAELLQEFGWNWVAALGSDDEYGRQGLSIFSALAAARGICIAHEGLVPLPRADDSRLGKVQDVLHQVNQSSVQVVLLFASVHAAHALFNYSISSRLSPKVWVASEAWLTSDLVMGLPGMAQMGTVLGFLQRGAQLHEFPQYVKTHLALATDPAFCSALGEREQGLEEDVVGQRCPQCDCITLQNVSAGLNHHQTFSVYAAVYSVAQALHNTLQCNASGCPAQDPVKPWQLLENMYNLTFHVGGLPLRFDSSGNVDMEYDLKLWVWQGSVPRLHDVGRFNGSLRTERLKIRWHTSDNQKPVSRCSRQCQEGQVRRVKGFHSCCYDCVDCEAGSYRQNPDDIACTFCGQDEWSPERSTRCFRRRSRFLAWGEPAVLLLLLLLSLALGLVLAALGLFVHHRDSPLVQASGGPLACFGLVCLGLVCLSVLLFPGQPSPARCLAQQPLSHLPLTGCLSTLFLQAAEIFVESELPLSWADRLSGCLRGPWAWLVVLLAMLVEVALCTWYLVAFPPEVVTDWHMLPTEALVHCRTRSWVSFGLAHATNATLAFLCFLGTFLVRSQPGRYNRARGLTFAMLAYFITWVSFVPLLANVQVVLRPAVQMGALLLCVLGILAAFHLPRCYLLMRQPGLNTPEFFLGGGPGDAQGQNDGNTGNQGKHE
# Assay: Fluo-4 calcium assay, transiently transfected HEK293T/Gα16-gustducin 44 cells (Examples 6a, 6b)
# Format: cell-based
# Settings: Example 6b; mean of six replicates; Calcium Chloride (2 mM), Sucralose (0.5 mM), perillartine (50 μM)
# From the text: (§1) The following ligands were used for to stimulate the transfected cells in the concentrations as indicated in brackets: […]
row,SMILES,T1R2/T1R3 AVG (mean ΔF/F)
1,"[Ca+2].[Cl-].[Cl-] [Calcium, Calcium Chloride]",0.19 ΔF/F
2,C=C(C)[C@@H]1CC=C(/C=N/O)CC1 [Perillartine],0.5 ΔF/F
3,OC[C@H]1O[C@H](O[C@]2(CCl)O[C@H](CCl)[C@@H](O)[C@@H]2O)[C@H](O)[C@@H](O)[C@H]1Cl [Sucralose],0.12 ΔF/F

# Target: T3, CSR::T1R2-b homomer (Homo sapiens, UniProt P41180+Q8TE23)
# T3 sequence (P41180+Q8TE23 with tags, fused parts or gaps): T1 sequence (P41180+Q8TE23 with tags, fused parts or gaps)
# Assay: Fluo-4 calcium assay, transiently transfected HEK293T/Gα16-gustducin 44 cells (Example 6b)
# Settings: mean of six replicates; Calcium Chloride (2 mM), Sucralose (0.5 mM), perillartine (50 μM)
# Description: as §2, §3, §4, §5, §6
# As a negative control, mock transfected cells were exposed to the same concentration of ligand and the concentration of calcium traces not corresponding to a signal was determined.
# as §7
row,SMILES,CSR::R2-b alone AVG (mean ΔF/F)
1,"[Ca+2].[Cl-].[Cl-] [Calcium, Calcium Chloride]",0.424 ΔF/F
2,C=C(C)[C@@H]1CC=C(/C=N/O)CC1 [Perillartine],0.11 ΔF/F
3,OC[C@H]1O[C@H](O[C@]2(CCl)O[C@H](CCl)[C@@H](O)[C@@H]2O)[C@H](O)[C@@H](O)[C@H]1Cl [Sucralose],0.016 ΔF/F

# Tested on: Mock transfected HEK293T/Gα16-gustducin 44 cells
# Assay: Fluo-4 calcium assay, negative control mock transfection (Examples 6a, 6b)
# Format: cell-based, human
# Settings: Example 6a; mean of six replicates; Calcium Chloride (2 mM), Sucralose (0.5 mM), aspartame (0.85 mM), perillartine (50 μM), cinnamonitrile (100 EM), cyclamate (1 mM), NDHC (0.33 mM)
# From the text: as §1
row,SMILES,Neg. control (mock transfection) AVG (net increase in fluorescence over baseline) [RFU]
1,COC(=O)[C@H](Cc1ccccc1)NC(=O)[C@@H](N)CC(=O)O [Aspartame] (H-Asp-Phe-OMe),−125
2,"[Ca+2].[Cl-].[Cl-] [Calcium, Calcium Chloride]",1570
3,C=C(C)[C@@H]1CC=C(/C=N/O)CC1 [Perillartine],−379

# Same assay, conditions: Example 6b; mean of six replicates; Calcium Chloride (2 mM), Sucralose (0.5 mM), perillartine (50 μM)
row,SMILES,Neg. control (mock transfection) AVG (mean ΔF/F)
1,"[Ca+2].[Cl-].[Cl-] [Calcium, Calcium Chloride]",0.20 ΔF/F
2,C=C(C)[C@@H]1CC=C(/C=N/O)CC1 [Perillartine],0.06 ΔF/F
3,OC[C@H]1O[C@H](O[C@]2(CCl)O[C@H](CCl)[C@@H](O)[C@@H]2O)[C@H](O)[C@@H](O)[C@H]1Cl [Sucralose],0.03 ΔF/F

# Target: T4, hCaSR (Homo sapiens, UniProt P41180)
# T4 sequence (P41180 20-1078): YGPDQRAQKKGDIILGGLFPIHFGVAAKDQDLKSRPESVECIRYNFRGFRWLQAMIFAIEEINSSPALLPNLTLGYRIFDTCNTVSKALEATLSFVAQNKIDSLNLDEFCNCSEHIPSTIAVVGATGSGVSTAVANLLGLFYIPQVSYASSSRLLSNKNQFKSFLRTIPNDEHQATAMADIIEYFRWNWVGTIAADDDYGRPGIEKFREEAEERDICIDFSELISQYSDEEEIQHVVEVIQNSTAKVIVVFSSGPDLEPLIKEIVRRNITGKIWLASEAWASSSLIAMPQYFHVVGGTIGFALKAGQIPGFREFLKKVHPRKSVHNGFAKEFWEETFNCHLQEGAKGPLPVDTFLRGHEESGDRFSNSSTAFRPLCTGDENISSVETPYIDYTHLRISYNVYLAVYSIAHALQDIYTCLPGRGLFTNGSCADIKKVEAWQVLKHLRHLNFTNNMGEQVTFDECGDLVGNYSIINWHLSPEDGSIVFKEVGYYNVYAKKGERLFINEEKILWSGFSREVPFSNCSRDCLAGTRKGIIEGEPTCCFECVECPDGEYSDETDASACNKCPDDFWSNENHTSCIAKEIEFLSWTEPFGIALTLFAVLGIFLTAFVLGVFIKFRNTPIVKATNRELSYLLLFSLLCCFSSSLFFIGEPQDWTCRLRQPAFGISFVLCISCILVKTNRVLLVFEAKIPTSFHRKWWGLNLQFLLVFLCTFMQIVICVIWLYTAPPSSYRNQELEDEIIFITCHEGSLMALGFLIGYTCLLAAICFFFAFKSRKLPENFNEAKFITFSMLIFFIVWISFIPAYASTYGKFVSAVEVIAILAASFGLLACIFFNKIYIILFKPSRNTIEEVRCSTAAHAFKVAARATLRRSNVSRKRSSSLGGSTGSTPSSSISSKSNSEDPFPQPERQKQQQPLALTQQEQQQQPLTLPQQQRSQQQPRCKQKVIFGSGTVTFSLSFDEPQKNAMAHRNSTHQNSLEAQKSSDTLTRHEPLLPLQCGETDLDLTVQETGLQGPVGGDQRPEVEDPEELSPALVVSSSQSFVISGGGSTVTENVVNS
# Assay: Fluo-4 calcium assay, transiently transfected HEK293T/Gα16-gustducin 44 cells (Example 6a)
# Format: cell-based
# Settings: Example 6a
# From the text: The hCaSR vector is used as positive control for a GPCR that is sensitive to calcium, as it is sensitive to calcium and the calcium binding site lies in the VFT of this receptor, which is where the VFT for the chimera is derived from.
# as §1
row,SMILES,response of hCaSR (in words)
1,"[Ca+2].[Cl-].[Cl-] [Calcium, Calcium Chloride]",responded

# Same assay, conditions: mean of six replicates; Calcium Chloride (2 mM), Sucralose (0.5 mM), aspartame (0.85 mM), perillartine (50 μM), cinnamonitrile (100 EM), cyclamate (1 mM), NDHC (0.33 mM)
row,SMILES,hCaSR AVG (net increase in fluorescence over baseline) [RFU]
1,COC(=O)[C@H](Cc1ccccc1)NC(=O)[C@@H](N)CC(=O)O [Aspartame] (H-Asp-Phe-OMe),41
2,"[Ca+2].[Cl-].[Cl-] [Calcium, Calcium Chloride]",7610
3,N#CC=Cc1ccccc1 [Cinnamonitrile],197
4,C=C(C)[C@@H]1CC=C(/C=N/O)CC1 [Perillartine],73
5,OC[C@H]1O[C@H](O[C@]2(CCl)O[C@H](CCl)[C@@H](O)[C@@H]2O)[C@H](O)[C@@H](O)[C@H]1Cl [Sucralose],22
